Measurements published in publication PMC6058673, “Comparison of hyaluronic acid-based micelles and polyethylene glycol-based micelles on reversal of multidrug resistance and enhanced anticancer efficacy in vitro and in vivo” (Drug Delivery, 2018).
Values joined by “and” are separate entries in the source; they are usually repeats but may differ in a detail not shown here. Equal values may be shown once.

Tests used:
4T1-bearing Balb/C mice = assay: In vivo biodistribution in tumor-bearing mice; conditions: 4T1-bearing mice, 2 h after i.v. 10 mg DOX/kg and 10 mg Cur/kg
Method: After 2 h administration, the mice were sacrificed, and the tumor, heart, liver, lung, and kidney were excised, weighed, homogenized in 0.5 mL methanol, centrifuged and analyzed by LC-MS/MS. Meanwhile, for qualitative analysis, the tumors were frozen in cryoembedding media (OCT) and sectioned at 20 μm. The sections were fixed with 4% paraformaldehyde for 10 min, stained for nuclei with DAPI, and observed by CLSM.

MCF-7/Adr cells = assay: MTT cytotoxicity assay and MDR reversal in multidrug-resistant MCF-7/Adr cells; assay type: cell-based; conditions: for resistant index (RI): MCF-7/Adr vs MCF-7; for IC50: Homo sapiens, NCI/ADR-RES, MCF-7/Adr, DOX concentration
Method: The sensitive MCF-7 and multidrug-resistant MCF-7/Adr cells were obtained from Nanjing Kaiji Biotech. Ltd. Co. (Jiangsu, China). Cells were cultured in RPMI-1640 medium containing 10% (v/v) FBS and 1% penicillin–streptomycin at 37 °C with 5% CO2. Additionally, MCF-7/Adr cells were incubated in medium with 1 μg/mL DOX.
The cytotoxicity of various formulations against MCF-7 and MCF-7/Adr cells was assessed by MTT assay. Briefly, MCF-7 and MCF-7/Adr cells were seeded in 96-well plates at a density of 5 × 10^4 cells/well/0.1 mL 1640 culture medium and cultured for 24 h. Then, the cells were treated with DOX-Sol, DOX + Cur, HA-PMs, TPGS2k-PMs and HA/TPGS2k-PMs with multiple concentrations of DOX for 48 and 72 h, respectively. The cells incubated with medium only were utilized as control. At time interval, 20 μL MTT (5 mg/mL) was added and incubated for another 4 h. After that, the medium of each well was discarded and added 200 μL DMSO. The absorbance of each well was measured at 570 nm using a microplate reader. Half-maximal inhibitory concentration (IC50), the resistant index (RI) and reversal factor (RF) were calculated and used to evaluate MDR reversal effects by micelles(Ling et al., [2010]; Wang et al., [2012]).

[1] = In vivo pharmacokinetics after intravenous injection; conditions: rat, i.v., DOX 5 mg/kg and Cur 5 mg/kg, analyte DOX
Method: Male Sprague–Dawley rats were randomly assigned to five groups (five rats per group). DOX-Sol, DOX + Cur, TPGS2k-PMs, HA-PMs and HA/TPGS2k-PMs were injected intravenously with at the dose of 5 mg/kg DOX and 5 mg/kg Cur, respectively. About 300 μL of blood samples were collected from the orbital venous plexus and immediately centrifuged to obtain the plasma fraction. Plasma samples were extracted through methanol protein precipitation method before analyzed by LC–MS/MS system.

4T1 tumor-bearing mice [2] = assay: In vivo antitumor efficacy, body weight and survival; design: species or system BALB/c mice; conditions: 4T1-bearing mice, i.v. 10 mg/kg DOX
Method: The antitumor efficacy and safety in vivo were evaluated using 4T1 tumor-bearing mice. Briefly, 1 × 10^6 4T1 cells were subcutaneously injected into the right axilla of the female BALB/c mice. […] Body weights and tumor volumes (V = ab^2/2, where a was major axis and b was minor axis measured by slide caliper) were measured every two days after administration. At the end of the experiment, mice were sacrificed, and then the tumors were excised, weighted and photographed.

4T1 tumor-bearing mice [3] = assay: Serum CK, CKMB, LDH and AST (organ toxicity) by ELISA kit; assay type: in vivo, BALB/c mice; conditions: 4T1-bearing mice, end of experiment; DOX-Sol vs saline, others vs DOX-Sol
Method: The toxicity of DOX formulations in vivo were evaluated by enzyme-linked immunosorbent assay (ELISA) kit. At the end of the experiment, the blood of each mouse was extracted by eyeballs and the serum was separated. Then, the activities of creatine kinase (CK), creatine kinase MB (CKMB), lactate dehydrogenase (LDH) and aspartate transaminase (AST) in serum were evaluated to investigate the organ toxicity.

With `COc1cccc2c1C(=O)c1c(O)c3c(c(O)c1C2=O)C[C@@](O)(C(=O)CO)C[C@@H]3O[C@H]1C[C@H](N)[C@H](O)[C@H](C)O1` [DOX-Sol, Doxorubicin] the “DOX accumulation in tumor” value (4T1-bearing Balb/C mice) was “low DOX accumulation”, the “resistant index (RI)” value (MCF-7/Adr cells; 48h, listed as DOX) was 142 and 142.01 and the “resistant index (RI)” value (MCF-7/Adr cells; 72h) was 89.82. The IC50 (MCF-7/Adr cells; 48h) was 106 mg/L, the IC50 (MCF-7/Adr cells; 72h) was 45.8 mg/L and the “V of DOX” value [1] was 0.03 ± 0.02 L/kg. The “death of mice during treatment” value (4T1 tumor-bearing mice [2]; 10 mice per group) was “five mice suddenly died after nine days treatment”, the body weight change (4T1 tumor-bearing mice [2]) was “markedly decreased” and the “values of CKMB, CK, LDH and AST in serum” value (4T1 tumor-bearing mice [3]) was “significantly higher than those in saline-treated groups”.
